Reference: patent publication US8686115B2, “Compositions and methods for quantitatively monitoring lipids” (The Board of Trustees of the University of Illinois, priority 2009, dated 2014)
Residue numbers refer to the chain shown, from its start. Names may count otherwise. Like-named read-outs stand apart in the source and are kept apart here. Each block holds one molecule with its values, some of them ahead of it.

Key:
[1] = target: T1, PLCδ-PH (PLCδ PH domain) (Homo sapiens, UniProt P51178); experiment: SPR equilibrium binding of PLCδ-PH to phosphoinositide-containing LUVs
T1 sequence (P51178 21-130 limits assumed): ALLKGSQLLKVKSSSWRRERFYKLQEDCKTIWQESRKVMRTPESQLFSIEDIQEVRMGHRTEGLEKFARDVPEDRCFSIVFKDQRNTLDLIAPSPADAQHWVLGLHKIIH
Method: With respect to FIG. […] The proteins were incubated with a given concentration of IP3 for 5 minutes before injecting into the SPR instrument. Kinetic SPR measurements were performed in 20 mM Tris-HCL, pH 7.4, containing 0.16 KCl. […] A lower concentration of DAN-eENTH was used than that of PLCδ PH because the former has much higher affinity that the latter.
LUVs were prepared by extrusion using a 100 nm-pore membrane. GUVs were prepared by electroformation. The lipid mixture were prepared in chloroform/methanol (3:1) at a total concentration of 0.4 mg/ml, then the lipid solution was spread onto the indium-tin oxide electrode surface and the lipid was dried under vacuum to form a uniform lipid film. Vesicles were grown in a sucrose solution (350 mM) while an electric field (3V, 20 Hz frequency) was applied for 5 hour at room temperature. After 1 to […] of sucrose-loaded GUV solution was added into a well glued onto a coverslip that was placed on the microscope stage. The well contained […] of 20 mM Tris-HCl buffer, pH 7.4, with 0.16 M KCl solution. The diameter of GUVs ranged from 5 to 30 μm.

[2] = target: T2, epsin 1 ENTH domain, wild type, SEQ ID NO: 1 (Homo sapiens, UniProt Q9Y6I3); experiment: SPR equilibrium binding of epsin1 ENTH domain (wild type) to phosphoinositide-containing LUVs; details: SPR
T2 construct: The Epsin1 ENTH domain (1-158 amino acids) was subcloned; GST (C, cleaved yes); made in house; host or cells: E. coli BL21 RIL codon plus
T2 sequence (Q9Y6I3 1-158): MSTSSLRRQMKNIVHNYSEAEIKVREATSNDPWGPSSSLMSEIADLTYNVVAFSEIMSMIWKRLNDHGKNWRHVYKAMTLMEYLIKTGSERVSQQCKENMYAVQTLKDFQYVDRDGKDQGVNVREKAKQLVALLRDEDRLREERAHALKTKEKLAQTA
Source text: (§1) The ENTH domain was engineered to introduce a single labeling site (M10C) on the membrane binding surface while removing an endogenous Cys (C96A). We also performed the S4W mutation to suppress its residual affinity for another lipid, phosphatidylinositol-3,4,5-trisphosphate (PtdIns(3,4,5)P3) (PtdIns(4,5)P2/PtdIns(3,4,5)P3=4 for wild type and >10 for the mutant) and to enhance the overall affinity for PtdIns(4,5)P2-containing membranes (ca. 4-fold) (Table 1).
(§2) With respect to FIG. 1, an L1 sensor chip was coated with POPC/POPS/PtdIns(4,5)P2 (77:20:3) LUVs. The proteins were incubated with a given concentration of IP3 for 5 minutes before injecting into the SPR instrument. Kinetic SPR measurements were performed in 20 mM Tris-HCL, pH 7.4, containing 0.16 KCl. […] A lower concentration of DAN-eENTH was used than that of PLCδ PH because the former has much higher affinity that the latter.
The Epsin1 ENTH domain (1-158 amino acids) was subcloned into the pGEX4T-1 vector and expressed as a […] glutathione S-transferase (GST)-tagged protein. The ENTH domain amino acid sequence is as follows:
E. coli BL21 RIL codon plus (Stratagene) cells were used for protein expression. Cells were grown in Luria broth media containing 100 μg/ml of ampicillin at 37° C. 0.1 mM of Isopropyl β-D-1-thiogalactopyranoside was added to induce over-expression of recombinant proteins when the OD600 reached 0.5-0.8 and cells were grown for additional 6 to 10 hours at 25° C. Cells were harvested by centrifugation and cell pellets were resuspended in 50 mM Tris-HCl buffer (pH 7.4) containing 160 mM KCl, 1 mM phenylmethanesulphonylfluoride, and 5 mM of dithiothreitol (DTT). Cells were lysed by sonication and the lysate was collected by centrifugation at 4° C. The GST-affinity resin (GenScript) for GST-tagged proteins or nickel-nitrilotriacetic acid resin (Qiagen, Valencia, Calif.) for His6-tagged proteins was added into the cell lysate and the mixture was gently shaken for 30 minutes at 4° C. The mixture was applied to a column and the column was washed once with 50 mM Tris-HCl buffer (pH 7.4) containing 160 mM KCl and 5 mM of DTT to reduce thiol group, and washed several times with the same buffer without DTT to remove DTT. For DAN labeling, 100 μg of acrylodan was added to the column at this stage and incubated 16 hours at 4° C. The excess acrylodan was removed by washing the column with the buffer several times. […] Purity and the concentration of the recombinant proteins were determined by sodium dodecylsulfate-polyacrylamide gel electrophoresis and bicinchoninic acid assay, respectively. The DAN labeling yield of eENTH, which was calculated as the molar ratio of DAN (determined spectrophotometrically at 391 nm using its extinction coefficient of 20,000 cm^−1 M^−1) to protein, was typically 60-70%. […]

[3] = target: T3, DAN-eENTH: epsin 1 ENTH domain variant M10C/C96A/S4W, SEQ ID NO: 2, labeled with DAN at C10 (Homo sapiens, UniProt Q9Y6I3, C96A/M10C/S4W); experiment: SPR equilibrium binding of DAN-eENTH to phosphoinositide-containing LUVs; details: SPR
T3 construct: The Epsin1 ENTH domain (1-158 amino acids) was subcloned; GST (C, cleaved yes); made in house; host or cells: E. coli BL21 RIL codon plus
T3 sequence (Q9Y6I3 1-158 S4W/M10C/C96A): T2 sequence (Q9Y6I3 1-158) with S4W, M10C, C96A
Source text: Provided herein is an ENTH domain of epsin1, which is linked to 2-dimethylamino-6-acyl-naphthalene (DAN). The ENTH domain contains 3 mutations, which are substitutions: M10C, C96A, and S4W. See SEQ ID NO:2. This DAN-eENTH (M10C, C96A, S4W) is an exceptional, high-affinity phosphatidylinositol-4,5-bisphosphate (PtdIns(4,5)P2)-binding protein.
as §1, §2
(§3) All mutations (S4W, M10C, and C96A) were performed by polymerase chain reaction mutagenesis and verified by DNA sequencing. eENTH may comprise the following sequence:
E. coli BL21 RIL codon plus (Stratagene) cells were used for protein expression. Cells were grown in Luria broth media containing 100 μg/ml of ampicillin at 37° C. 0.1 mM of Isopropyl β-D-1-thiogalactopyranoside was added to induce over-expression of recombinant proteins when the OD600 reached 0.5-0.8 and cells were grown for additional 6 to 10 hours at 25° C. Cells were harvested by centrifugation and cell pellets were resuspended in 50 mM Tris-HCl buffer (pH 7.4) containing 160 mM KCl, 1 mM phenylmethanesulphonylfluoride, and 5 mM of dithiothreitol (DTT). Cells were lysed by sonication and the lysate was collected by centrifugation at 4° C. The GST-affinity resin (GenScript) for GST-tagged proteins or nickel-nitrilotriacetic acid resin (Qiagen, Valencia, Calif.) for His6-tagged proteins was added into the cell lysate and the mixture was gently shaken for 30 minutes at 4° C. The mixture was applied to a column and the column was washed once with 50 mM Tris-HCl buffer (pH 7.4) containing 160 mM KCl and 5 mM of DTT to reduce thiol group, and washed several times with the same buffer without DTT to remove DTT. For DAN labeling, 100 μg of acrylodan was added to the column at this stage and incubated 16 hours at 4° C. The excess acrylodan was removed by washing the column with the buffer several times. Thrombin (Invitrogen) was added to column to remove the GST tag and the mixture was incubated at 4° C. for 10 hours. The labeled protein was eluted from the column by and the collected fractions were applied to ion exchange column. Purity and the concentration of the recombinant proteins were determined by sodium dodecylsulfate-polyacrylamide gel electrophoresis and bicinchoninic acid assay, respectively. The DAN labeling yield of eENTH, which was calculated as the molar ratio of DAN (determined spectrophotometrically at 391 nm using its extinction coefficient of 20,000 cm^−1 M^−1) to protein, was typically 60-70%.
LUVs were prepared by extrusion using a 100 nm-pore membrane. GUVs were prepared by electroformation. […]

[4] = target: T4, epsin 1 ENTH domain (SEQ ID NO: 1) variant C96A (Homo sapiens, UniProt Q9Y6I3, C96A); experiment: SPR equilibrium binding of epsin1 ENTH C96A to phosphoinositide-containing LUVs
T4 construct: The Epsin1 ENTH domain (1-158 amino acids) was subcloned; GST (C, cleaved yes); made in house; host or cells: E. coli BL21 RIL codon plus
T4 sequence (Q9Y6I3 1-158 C96A): T2 sequence (Q9Y6I3 1-158) with C96A
Source text: as §1, §2, §3
E. coli BL21 RIL codon plus (Stratagene) cells were used for protein expression. Cells were grown in Luria broth media containing 100 μg/ml of ampicillin at 37° C. 0.1 mM of Isopropyl β-D-1-thiogalactopyranoside was added to induce over-expression of recombinant proteins when the OD600 reached 0.5-0.8 and cells were grown for additional 6 to 10 hours at 25° C. Cells were harvested by centrifugation and cell pellets were resuspended in 50 mM Tris-HCl buffer (pH 7.4) containing 160 mM KCl, 1 mM phenylmethanesulphonylfluoride, and 5 mM of dithiothreitol (DTT). Cells were lysed by sonication and the lysate was collected by centrifugation at 4° C. […] Purity and the concentration of the recombinant proteins were determined by sodium dodecylsulfate-polyacrylamide gel electrophoresis and bicinchoninic acid assay, respectively. The DAN labeling yield of eENTH, which was calculated as the molar ratio of DAN (determined spectrophotometrically at 391 nm using its extinction coefficient of 20,000 cm^−1 M^−1) to protein, was typically 60-70%. […]

[5] = system: NIH 3T3 cells; experiment: Change of plasma membrane [PtdIns(4,5)P2]s on stimulation, quantified with DAN-eENTH; assay type: cell-based; details: 1 μM insulin
Method: (§4) DAN-eENTH was delivered into NIH 3T3 cells by microinjection for live cell imaging and determined cellular [PtdIns(4,5)P2] by the ratiometric analysis. The green channel (FIG. 10a) representing both PtdIns(4,5)P2-bound and free DAN-eENTH illustrates that the sensor is successfully loaded into cells and randomly distributed in the cytosol, the nucleus, and the plasma membrane. […] When [PtdIns(4,5)P2]s in the PM was determined in a time-dependent manner by either single-channel 9FB) or ratiometric (FB/FG) analysis using the calibration curve (FIG. 2c or 2d), dramatic local heterogeneity of [PtdIns(4,5)P2]s was clearly visible at a given time ((FIG. 9c). […] In FIG. 7, the different angles represent different locations in the plasma membrane. […] That is, PtdIns(4,5)P2 can be locally enriched, but only transiently, in the quiescent cells. […] Also, the change in [PtdIns(4,5)P2]s was monitored in response to physiological stimuli, ATP and insulin. […]
(§5) NIH 3T3 cells were seeded into 8-well plates and grown at 37° C. in a humidified atmosphere of 95% air and 5% CO2 in Dulbecco's modified Eagle's medium (DMEM) (Invitrogen) supplemented with 10% (v/v) fatal bovine serum (Invitrogen). […] Thus, the cellular [PtdIns(4,5)P2] was determined from the observed (FB/FG) values using the in vitro calibration curve determined using POPC/POPS/PtdIns(4,5)P2 GUVs.

[6] = Equilibrium SPR binding to other phosphoinositide vesicles; details: POPC/POPS/phosphoinositide (77:20:3) vesicles; no significant SPR response signal with injection of 1 μM protein
[7] = system: NIH 3T3 cells; experiment: Cellular distribution of microinjected sensor in live cells; assay type: cell-based; details: FIG. 6
Method: as §4, §5

[8] = POPC/POPS/PtdIns(3,4)P2 (77:20:3) LUVs, read-out: Kd for PtdIns(3,4)P2
[9] = POPC/POPS/PtdIns(3,4,5)P3 (77:20:3) LUVs, read-out: Kd for PtdIns(3,4,5)P3

Kd [1, 8]: 350 nM
Kd [2, 8]: 180 nM
Kd [3, 8]: 50 nM
Kd [4, 8]: 190 nM
Molecule: CCCCCCCCCCCCCCCC(=O)OC[C@H](COP(=O)(O)O[C@H]1[C@H](O)[C@@H](O)[C@H](OP(=O)(O)O)[C@@H](OP(=O)(O)O)[C@H]1O)OC(=O)CCCCCCCCCCCCCCC [PtdIns(3,4)P2]

Kd [1, 9]: 480 nM
Kd [2, 9]: 210 nM
Kd [3, 9]: 44 nM
Kd [4, 9]: 200 nM
Molecule: CCCCCCCCCCCCCCCC(=O)OC[C@H](COP(=O)(O)O[C@H]1[C@H](O)[C@@H](OP(=O)(O)O)[C@H](OP(=O)(O)O)[C@@H](OP(=O)(O)O)[C@H]1O)OC(=O)CCCCCCCCCCCCCCC [PtdIns(3,4,5)P3, phosphatidylinositol-3,4,5-trisphosphate]

Molecule: insulin
reduction in spatially averaged [PtdIns(4,5)P2]s in the plasma membrane [5]: ~10%

Kd [6]: > 1000 nM
B1: DAN-eENTH: eENTH (M10C, C96A, S4W) linked via C10 to 2-dimethylamino-6-acyl-naphthalene (DAN); PtdIns(4,5)P2 sensor (conjugate)
chain: T2 sequence (Q9Y6I3 1-158) with S4W, M10C, C96A
modifications: DAN fluorophore on Cys10; Modified ENTH domain of Epsin 1.
notes: eENTH (M10C, C96A, S4W) linked via C10 to 2-dimethylamino-6-acyl-naphthalene (DAN); PtdIns(4,5)P2 sensor
cellular localization after microinjection [7]: mainly enriched in the plasma membrane

Kd [6]: > 1000 nM
B2: C96A/S4W (eENTH): engineered ENTH domain of epsin 1 with substitutions M10C, C96A, S4W, SEQ ID NO:2 (protein)
chain: T2 sequence (Q9Y6I3 1-158) with S4W, M10C, C96A
modifications: Modified ENTH domain of Epsin 1.

Kd [6]: > 1000 nM
B3: Wild Type: ENTH domain of epsin 1, amino acids 1-158, SEQ ID NO:1 (protein)
chain: T2 sequence (Q9Y6I3 1-158)
modifications: ENTH domain of Epsin 1.
